Assay results from BindingDB's records for doi:10.1021/jm0005454 (Cnrs, 2002).

Legend:
[1] = target: T1, Angiotensin-converting enzyme (Rattus norvegicus, UniProt P47820); assay: In Vitro Inhibition of NEP
T1 sequence (P47820 whole entry): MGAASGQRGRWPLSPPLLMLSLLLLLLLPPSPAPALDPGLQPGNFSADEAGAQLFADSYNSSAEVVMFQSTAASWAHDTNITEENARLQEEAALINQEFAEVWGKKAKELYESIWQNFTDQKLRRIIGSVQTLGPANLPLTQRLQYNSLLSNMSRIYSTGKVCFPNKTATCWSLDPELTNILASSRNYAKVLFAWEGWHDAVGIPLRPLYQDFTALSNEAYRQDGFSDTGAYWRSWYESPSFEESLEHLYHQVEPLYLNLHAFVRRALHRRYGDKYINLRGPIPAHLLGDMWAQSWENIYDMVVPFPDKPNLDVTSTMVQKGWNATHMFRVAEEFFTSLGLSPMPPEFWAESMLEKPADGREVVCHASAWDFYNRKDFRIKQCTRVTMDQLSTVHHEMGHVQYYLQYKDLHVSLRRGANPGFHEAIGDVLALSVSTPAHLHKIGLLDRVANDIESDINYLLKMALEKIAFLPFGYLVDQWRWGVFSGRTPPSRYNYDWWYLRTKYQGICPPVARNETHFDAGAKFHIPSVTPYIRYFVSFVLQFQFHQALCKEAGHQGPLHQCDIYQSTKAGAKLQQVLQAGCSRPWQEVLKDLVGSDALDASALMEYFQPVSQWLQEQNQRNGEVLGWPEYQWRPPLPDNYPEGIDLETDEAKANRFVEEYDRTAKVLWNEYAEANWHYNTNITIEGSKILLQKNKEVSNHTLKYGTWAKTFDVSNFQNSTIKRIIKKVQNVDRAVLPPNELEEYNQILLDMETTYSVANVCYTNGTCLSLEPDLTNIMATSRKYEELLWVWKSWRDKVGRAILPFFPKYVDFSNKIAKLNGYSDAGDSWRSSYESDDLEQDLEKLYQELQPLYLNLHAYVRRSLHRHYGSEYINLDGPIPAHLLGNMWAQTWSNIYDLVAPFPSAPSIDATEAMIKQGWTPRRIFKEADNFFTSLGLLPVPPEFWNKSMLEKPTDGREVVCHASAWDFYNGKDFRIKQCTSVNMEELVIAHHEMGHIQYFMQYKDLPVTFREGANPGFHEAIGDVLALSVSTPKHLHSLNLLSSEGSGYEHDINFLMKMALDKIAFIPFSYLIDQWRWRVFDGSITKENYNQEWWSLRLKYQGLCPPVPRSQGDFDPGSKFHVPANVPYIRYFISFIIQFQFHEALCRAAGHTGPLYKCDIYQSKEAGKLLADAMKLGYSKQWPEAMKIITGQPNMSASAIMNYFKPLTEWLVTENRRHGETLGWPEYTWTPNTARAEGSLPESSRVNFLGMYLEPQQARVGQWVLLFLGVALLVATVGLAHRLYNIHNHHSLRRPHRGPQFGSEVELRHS
Experimental: (§1) NEP was preincubated in black 96-well microplates with or without increasing concentrations of inhibitors. DGPA was added, and the reaction was stopped after 1 hr of incubation. The fluorescence was measured at excitation wavelength = 340 nm, emission wavelength = 530 nm.

Neprilysin = target: T2, Neprilysin (Oryctolagus cuniculus, UniProt P08049); assay: In Vitro Inhibition of NEP; settings: pH 7.4; 37 °C
T2 sequence (P08049 whole entry): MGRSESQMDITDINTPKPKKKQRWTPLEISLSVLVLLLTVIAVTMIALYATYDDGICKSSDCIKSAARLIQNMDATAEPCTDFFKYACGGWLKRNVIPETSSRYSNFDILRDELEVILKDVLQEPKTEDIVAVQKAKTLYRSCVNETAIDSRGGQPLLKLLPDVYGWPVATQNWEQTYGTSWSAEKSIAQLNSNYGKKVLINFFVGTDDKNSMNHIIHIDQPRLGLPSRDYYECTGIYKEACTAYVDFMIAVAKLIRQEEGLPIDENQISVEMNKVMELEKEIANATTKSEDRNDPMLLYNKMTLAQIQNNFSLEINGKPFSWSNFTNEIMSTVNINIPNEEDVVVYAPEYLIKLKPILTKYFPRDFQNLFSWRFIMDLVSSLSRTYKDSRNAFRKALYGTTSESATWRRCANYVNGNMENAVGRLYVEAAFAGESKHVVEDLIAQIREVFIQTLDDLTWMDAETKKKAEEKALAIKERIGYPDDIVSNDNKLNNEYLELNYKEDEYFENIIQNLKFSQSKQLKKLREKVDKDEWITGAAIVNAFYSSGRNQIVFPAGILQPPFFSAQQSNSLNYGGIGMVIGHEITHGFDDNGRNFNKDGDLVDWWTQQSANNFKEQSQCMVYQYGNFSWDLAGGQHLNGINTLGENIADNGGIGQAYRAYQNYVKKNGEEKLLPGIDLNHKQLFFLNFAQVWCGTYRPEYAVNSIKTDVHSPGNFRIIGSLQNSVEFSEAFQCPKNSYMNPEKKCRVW
Experimental: as §1

- Ki [1]: 26 nM
- Ki (Neprilysin): 8 nM
SMILES: O=C(O)[C@H](Cc1c[nH]c2ccccc12)NC(=O)[C@@H](CS)[C@@H]1CCCc2ccccc21 [(2S)-3-(1H-indol-3-yl)-2-[(2S)-3-sulfanyl-2-[(1S)-1,2,3,4-tetrahydronaphthalen-1-yl]propanamido]propanoic acid]
